Article PMC9636434, “Discovery of small molecule agonists of the Relaxin Family Peptide Receptor 2” (Communications Biology, 2022)
Values joined by “and” are separate entries in the source; they are usually repeats but may differ in a detail not shown here. Equal entries are not always repeated.

What was measured:
Type in all cases: cell-based
human FSHR = target: T1, human FSHR (Homo sapiens, UniProt P23945); test: HitHunter cAMP XS+ assay, cAMP Hunter cell line FSHR; details: for RLU: replicates (1),(2)
T1 sequence (P23945 18-695): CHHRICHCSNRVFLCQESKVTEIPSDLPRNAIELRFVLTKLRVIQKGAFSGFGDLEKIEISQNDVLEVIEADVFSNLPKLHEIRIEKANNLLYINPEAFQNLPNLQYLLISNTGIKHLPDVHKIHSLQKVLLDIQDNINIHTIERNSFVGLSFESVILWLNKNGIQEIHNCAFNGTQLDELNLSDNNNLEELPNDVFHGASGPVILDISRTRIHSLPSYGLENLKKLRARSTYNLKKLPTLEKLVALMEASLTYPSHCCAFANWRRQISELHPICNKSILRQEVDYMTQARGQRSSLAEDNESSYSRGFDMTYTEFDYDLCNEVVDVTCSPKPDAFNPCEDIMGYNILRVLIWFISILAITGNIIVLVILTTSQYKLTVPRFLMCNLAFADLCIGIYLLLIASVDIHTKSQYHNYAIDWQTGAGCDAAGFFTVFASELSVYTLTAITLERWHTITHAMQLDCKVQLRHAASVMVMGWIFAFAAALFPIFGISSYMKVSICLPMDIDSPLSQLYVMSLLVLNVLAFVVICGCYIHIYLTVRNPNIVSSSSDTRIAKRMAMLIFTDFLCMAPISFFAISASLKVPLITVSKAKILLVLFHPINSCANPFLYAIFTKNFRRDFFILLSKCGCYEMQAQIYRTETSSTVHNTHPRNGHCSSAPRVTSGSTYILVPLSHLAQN
Excerpt: Results are reported as raw RLU values and represent the
mean ± SEM of 2 technical replicates.

human RXFP3 = target: T2, human RXFP3 (Homo sapiens, UniProt Q9NSD7); test: GloSensor cAMP assay in RXFP3 transiently transfected HEK293T cells; details: for RLU (cAMP, raw): RXFP3, 0.1 µM isoproterenol, replicates (1)-(4)
T2 construct: host or cells: HEK293T (transient)
T2 sequence (Q9NSD7 1-469): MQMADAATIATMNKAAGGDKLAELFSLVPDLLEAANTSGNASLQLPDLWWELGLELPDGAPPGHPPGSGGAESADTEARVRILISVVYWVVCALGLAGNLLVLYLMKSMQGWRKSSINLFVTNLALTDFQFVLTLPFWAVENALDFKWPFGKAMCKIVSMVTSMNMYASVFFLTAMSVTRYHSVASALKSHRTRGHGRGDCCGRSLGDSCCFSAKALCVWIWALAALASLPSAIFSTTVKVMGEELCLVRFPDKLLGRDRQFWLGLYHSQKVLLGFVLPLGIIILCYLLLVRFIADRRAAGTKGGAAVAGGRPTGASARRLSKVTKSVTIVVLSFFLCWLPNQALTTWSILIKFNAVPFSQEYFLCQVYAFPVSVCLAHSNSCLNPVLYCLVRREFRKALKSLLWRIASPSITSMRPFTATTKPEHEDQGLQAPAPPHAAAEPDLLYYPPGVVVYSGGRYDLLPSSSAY

human ADORA1 = target: T3, human ADORA1 (Homo sapiens, UniProt P30542); test: PRESTO-Tango β-arrestin recruitment, ADORA1 transfected HTLA cells; details: for RLU: replicates (1)-(4)
T3 sequence (P30542 1-326): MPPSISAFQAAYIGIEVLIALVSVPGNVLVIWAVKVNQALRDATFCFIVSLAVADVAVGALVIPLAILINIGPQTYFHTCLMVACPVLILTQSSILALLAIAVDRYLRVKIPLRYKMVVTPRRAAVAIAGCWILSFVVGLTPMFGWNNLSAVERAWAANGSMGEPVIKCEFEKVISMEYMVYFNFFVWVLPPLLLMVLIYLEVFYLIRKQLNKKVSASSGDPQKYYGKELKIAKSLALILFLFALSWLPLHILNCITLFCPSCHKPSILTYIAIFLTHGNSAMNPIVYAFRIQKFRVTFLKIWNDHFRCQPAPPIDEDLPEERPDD

[1] = follow-up test using multiple compound concentrations

O=C1Nc2ccc(-c3cc(C(F)(F)F)cc(C(F)(F)F)c3)cc2C(=O)N2CCN(C(=O)COc3ccc(OC(F)(F)F)cc3I)C[C@@H]12 [compound 6641]
cAMP response through FSHR (human FSHR; Hit Hunter cAMP assay): did not result in an increase of cAMP level
RLU (human FSHR; Log [M] -4.70): 1000 RLU and 1200 RLU
RLU (human FSHR; Log [M] -5.18): 1080 RLU
RLU (human FSHR; Log [M] -5.65): 960 RLU and 1040 RLU
RLU (human FSHR; Log [M] -6.13): 880 RLU and 920 RLU
RLU (human FSHR; Log [M] -6.61): 840 RLU and 960 RLU
RLU (human FSHR; Log [M] -7.08): 960 RLU and 1040 RLU
RLU (human FSHR; Log [M] -7.56): 1280 RLU and 720 RLU
RLU (human FSHR; Log [M] -8.04): 880 RLU and 960 RLU
RLU (human FSHR; Log [M] -8.52): 1040 RLU and 1080 RLU
RLU (human FSHR; Log [M] -8.99): 720 RLU and 880 RLU
RLU (cAMP, raw) (human RXFP3; Log [M] -4.52): 1801.05 RLU and 1842.11 RLU and 1885.55 RLU and 1904.59 RLU
RLU (cAMP, raw) (human RXFP3; Log [M] -5): 1713.57 RLU and 1782 RLU and 1870.67 RLU and 1664.77 RLU
RLU (cAMP, raw) (human RXFP3; Log [M] -5.52): 1763.55 RLU and 1915.9 RLU and 1776.65 RLU and 1719.52 RLU
RLU (cAMP, raw) (human RXFP3; Log [M] -6): 2045.03 RLU and 1694.52 RLU and 1928.99 RLU and 1704.05 RLU
RLU (cAMP, raw) (human RXFP3; Log [M] -6.52): 1626.68 RLU and 1976 RLU and 1728.44 RLU and 1743.92 RLU
RLU (cAMP, raw) (human RXFP3; Log [M] -7): 2133.7 RLU and 1895.07 RLU and 2053.37 RLU and 1981.36 RLU
RLU (cAMP, raw) (human RXFP3; Log [M] -7.52): 1652.87 RLU and 1825.44 RLU and 1426.73 RLU and 1642.75 RLU
RLU (cAMP, raw) (human RXFP3; Log [M] -8): 1859.96 RLU and 1760.58 RLU and 1940.89 RLU and 1974.81 RLU
RLU (cAMP, raw) (human RXFP3; Log [M] -8.52): 2192.97 RLU and 1919.63 RLU
RLU (cAMP, raw) (human RXFP3; Log [M] -9): 1940.02 RLU and 2105.38 RLU and 1999.67 RLU and 2166.54 RLU
RLU (cAMP, raw) (human RXFP3; Log [M] -9.52): 2103.87 RLU and 2056.3 RLU and 1688.58 RLU
RLU (cAMP, raw) (human RXFP3; Log [M] -10): 1933.98 RLU and 1927.18 RLU and 2266.97 RLU and 1930.96 RLU
RLU (cAMP, raw) (human RXFP3; Log [M] -10.52): 1985.33 RLU and 1919.63 RLU and 2191.46 RLU and 1872.07 RLU
RLU (cAMP, raw) (human RXFP3; Log [M] -11): 2121.99 RLU and 2313.03 RLU and 1878.86 RLU and 1896.98 RLU
RLU (cAMP, raw) (human RXFP3; Log [M] -11.52): 2326.62 RLU and 1848.66 RLU and 1903.78 RLU and 1954.37 RLU
RLU (cAMP, raw) (human RXFP3; Log [M] -12): 1756.54 RLU and 2242.81 RLU and 2177.87 RLU and 2001.94 RLU
activation of RXFP3 (cAMP inhibition) (human RXFP3; cAMP induced by 0.1 µM isoproterenol): does not activate
β-arrestin recruitment, ADORA1 (mean ± SEM) (human ADORA1; 10 µM compound, basal level of detection 3-fold RLU): 3.92 ± 0.15 fold RLU
RLU (human ADORA1; Log [M] -4.52): 12779.2 RLU and 12694.9 RLU
RLU (human ADORA1; Log [M] -5): 11730.3 RLU and 10165.7 RLU and 11306.6 RLU
RLU (human ADORA1; Log [M] -5.52): 8500.46 RLU and 7004.94 RLU and 7182.3 RLU and 7062.97 RLU
RLU (human ADORA1; Log [M] -6): 6700.59 RLU and 4967.56 RLU and 5863.08 RLU and 4072.06 RLU
RLU (human ADORA1; Log [M] -6.52): 3400.99 RLU and 2989.38 RLU and 3675.77 RLU and 3380.19 RLU
RLU (human ADORA1; Log [M] -7): 3045.21 RLU and 3372.53 RLU and 2679.57 RLU and 3462.3 RLU
RLU (human ADORA1; Log [M] -7.52): 2808.75 RLU and 2538.36 RLU and 2762.77 RLU and 2945.59 RLU
RLU (human ADORA1; Log [M] -8): 3154.68 RLU and 2602.94 RLU and 3418.51 RLU and 3449.16 RLU
RLU (human ADORA1; Log [M] -8.52): 2742.95 RLU and 3614.63 RLU and 3319.34 RLU and 3617.47 RLU
RLU (human ADORA1; Log [M] -9): 3242.68 RLU and 2896.28 RLU and 3413.04 RLU and 3315.08 RLU
RLU (human ADORA1; Log [M] -9.52): 3821.91 RLU and 2910.47 RLU and 2806.84 RLU and 4087.39 RLU
RLU (human ADORA1; Log [M] -10): 2500.19 RLU and 3249.78 RLU and 3509.58 RLU and 3875.86 RLU
RLU (human ADORA1; Log [M] -10.52): 3874.43 RLU and 2887.76 RLU and 2717.4 RLU and 3465.57 RLU
RLU (human ADORA1; Log [M] -11): 3657.22 RLU and 3613.21 RLU and 3589.08 RLU and 3231.32 RLU
RLU (human ADORA1; Log [M] -11.52): 2119.72 RLU and 4131.4 RLU and 3244.1 RLU and 3141.88 RLU
RLU (human ADORA1; Log [M] -12): 3765.12 RLU and 3810.55 RLU and 4489.16 RLU and 3752.34 RLU
ADORA1 β-arrestin efficacy compared with NECA (human ADORA1; [1]): much lower efficacy
concentrations at which ADORA1 responded (β-arrestin) (human ADORA1; [1]): above 1 µM
